# Assay results from article PMC4671274 (Molecular microbiology, 2015).
# Target: Rv0888 (SpmT) (Mycobacterium tuberculosis, UniProt P9WKQ1)
# Sequence (P9WKQ1 32-490 limits assumed): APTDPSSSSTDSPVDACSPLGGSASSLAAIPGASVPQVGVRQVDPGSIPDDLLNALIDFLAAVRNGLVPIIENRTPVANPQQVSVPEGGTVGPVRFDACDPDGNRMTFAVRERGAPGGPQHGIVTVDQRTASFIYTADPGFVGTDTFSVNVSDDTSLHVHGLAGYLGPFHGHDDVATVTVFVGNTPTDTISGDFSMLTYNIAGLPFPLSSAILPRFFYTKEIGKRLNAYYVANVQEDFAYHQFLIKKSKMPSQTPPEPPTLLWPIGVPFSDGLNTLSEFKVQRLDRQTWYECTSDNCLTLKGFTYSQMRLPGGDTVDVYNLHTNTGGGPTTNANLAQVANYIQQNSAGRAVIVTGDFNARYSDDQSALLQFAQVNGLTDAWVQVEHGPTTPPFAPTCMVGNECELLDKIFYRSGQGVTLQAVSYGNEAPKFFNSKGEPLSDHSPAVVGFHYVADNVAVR
substance,measurement,value
sphingomyelin,Km,671 µM
